Results on one compound are retold here after US20240130368A1, “HERBICIDAL COMPOSITION” (Nippon Soda Co., Ltd., priority 2021, published 2024).

What all share (format): in vivo
For one test, the system named is Triticum aestivum. Put plainly: Test Example 5: spraying on the soil surface, herbicidal effect from above ground weight (useful plant). The settings on record: Compound (I-3) alone, sprayed on the soil surface, seven weeks after spraying. How it is done: (§1) POA allylphenyl ether (4.1 parts by weight), POE-POP glycol (1 part by weight), POE sorbitan laurate (0.8 parts by weight), glycerin (2.6 parts by weight), dimethylformamide (65.9 parts by weight), N-methylpyrrolidone (5.1 parts by weight), cyclohexanone (15.4 parts by weight), and aromatic hydrocarbons (5.1 parts by weight) were mixed and dissolved to prepare an emulsion. The active ingredient (4 mg) of the composition of the present invention was dissolved in this emulsion (100 μL) to prepare a test emulsion. It should be noted that POA means “polyoxyalkylene”, POE means “polyoxyethylene”, and POP means “polyoxypropylene”.
(§2) For the evaluation of the herbicidal effects, the above ground weights of weeds in the untreated and treated areas were measured for each weed 3 weeks after spraying treatment, and the herbicidal effect (%) was calculated by the following calculation formula.
(§3) Herbicidal effect (%)=[(above ground weight of weeds in untreated area)−(above ground weight of weeds in treated area)/(above ground weight of weeds in untreated area)]×100
(§4) A test emulsion was prepared in the same manner as in Test Example 4.
(§5) A 300 cm^2 pot was filled with soil, and seeds of Triticum aestivum, multidrug-resistant Alopecurus myosuroides, Lolium multiflorum and Avena fatua were sown into the surface layer, and covered with soil to a thickness of 0.5 to 1 cm. The above test emulsion was diluted so that the amount of the active ingredient became a predetermined amount, and sprayed on the soil surface at a spray water volume of 250 L per hectare, followed by growth in an outdoor environment.
(§6) Seven weeks after spraying, the evaluation was carried out in the same manner as in Test Example 4, except that the above ground weights of weeds in the untreated and treated areas were measured for each weed.
The following plants were used as useful plants [scientific names]. • Wheat [Triticum aestivum]

The test system of the next test is Lolium multiflorum. Put plainly: Test Example 5: spraying on the soil surface, herbicidal effect from above ground weight. To be noted: Compound (I-3) alone, sprayed on the soil surface, seven weeks after spraying. How it is done:
as §1, §2, §3, §4, §5, §6
(§7) The following grass species were used as grass species to be controlled [scientific names]. • Blackgrass * [Alopecurus myosuroides] • Italian ryegrass [Lolium multiflorum] • Wild oat [Avena fatua]

For test [1], the system named is multidrug-resistant Alopecurus myosuroides. The test is described as above. To be noted: Compound (I-3) alone, sprayed on the soil surface, seven weeks after spraying, Alopecurus myosuroides multidrug-resistant strain. How it is done:
as §1, §2, §3, §4, §5, §6, §7

The test system of the next test is Avena fatua. Described as above. To be noted: Compound (I-3) alone, sprayed on the soil surface, seven weeks after spraying. As for the experimental part: as §1, §2, §3, §4, §5, §6, §7
The subject of the next test is Ipomoea hederacea. As to the kind of experiment: Test Example 6: foliar spraying treatment, herbicidal effect from above ground weight. The settings on record: Compound (I-3) alone. How it is done: as §1, §4
(§8) A 300 cm^2 pot was filled with soil, and seeds of Zea mays and Ipomoea hederacea were sown into the surface layer, and then grown in a greenhouse after being covered lightly with soil. When each plant grew to a plant height of 7 to 9 cm, the above test emulsion was diluted so that the amount of the active ingredient became a predetermined amount, and sprayed on the foliage with a small sprayer at a spray water volume of 250 L per hectare.
(§9) Test Examples 6-1 and 6-3 were evaluated in the same manner as in Test Example 4.
(§10) The expected values of the herbicidal effects in Test Example 6-2 were calculated using the following Colby's formula (Colby, S. R., Calculating synergistic and antagonistic responses of herbicide combinations, Weeds, 15, pp. 20-22 (1967)).
(§11) X indicates an herbicidal effect (%) by applying the compound (1) alone, Y and Z each indicate an herbicidal effect (%) by applying one of the two types of the compounds (II) alone, and E indicates an expected value (%) of the herbicidal effect by applying combinations of the compound (I) and two types of the compounds (II).
(§12) When the actual measured value (%) of the herbicidal effect by the combined application of the compound (I) and two types of the compounds (11) is greater than the expected value E, it can be regarded that the combined application of the compound (1) and two types of the compounds (II) has a synergistic effect.
The following grass species were used as grass species to be controlled [scientific names]. • Morning glory [Ipomoea hederacea]

Another test concerns Zea mays. As to the kind of experiment: Test Example 6: foliar spraying treatment, herbicidal effect from above ground weight (useful plant). To be noted: Compound (I-3) alone. As for the experimental part:
as §1, §4, §8, §9, §10, §11, §12
The following plants were used as useful plants [scientific names]. • Corn for animal feed [Zea mays]

For another test, the system named is Ambrosia artemisiifolia. Put plainly: Test Example 1: seeds on filter paper moistened with chemical solution, herbicidal effect visually evaluated. To be noted: Ambrosia artemisiifolia, 144 h, visually evaluated 6 days after treatment. As for the experimental part: As the compound (1), 1-methoxy-3-methyl-6-(1,1-dioxido-8-(trifluoromethyl)thiochroman-5-yl)-7-oxa-3,4-diazabicyclo[4.1.0]hept-4-en-2-one (Compound (I-3)) was used.
(§13) The compound (I) or compound (II) was prepared into a 5% emulsion using DMF (containing 1.5% Tween) and diluted with water to a prescribed dosage concentration. Commercially available preparations were dissolved in water and adjusted to a prescribed dosage concentration.
(§14) Seeds were soaked in 0.6% sodium hypochlorite for a predetermined time for surface sterilization and washed with water for use (seed disinfection). Seeds of Ambrosia artemisiifolia were used for the test.
(§15) Filter paper was placed on a cup (diameter: 10 cm, height: 4 cm) with a lid and moistened with 8 ml of chemical solution, and seeds were sown thereon, and after covering with a lid, grown in a constant temperature room.
(§16) The herbicidal effects were visually evaluated, 6 days after the treatment, as the herbicidal effect (%), by comparing with a state of an untreated group using a total of 21 scores of withering index from 0 to 20 (0: mortality rate equivalent to that of the untreated group, 20: mortality rate of 100%).
(§17) In addition, the expected values of the herbicidal effects were calculated from the herbicidal effects in a case where the compound (I) alone was applied and the herbicidal effects in a case where the compound (II) alone was applied by using the Colby's formula (Colby, S. R., Calculating synergistic and antagonistic responses of herbicide combinations, Weeds, 15, pp. 20-22 (1967)).
(§18) M indicates an herbicidal effect (%) in the application of the compound (I) alone, N indicates an herbicidal effect (%) in the application of the compound (II) alone, and E indicates an expected value (%) of the herbicidal effect in the combined application of the compound (T) and the compound (TT). When the actual measured value (%) of the herbicidal effect in the combined application of the compound (I) and the compound (II) is greater than the expected value E, it can be regarded that the combined application of the compound (I) and the compound (II) has a synergistic effect.

In a further test the test system is Abutilon theophrasti. Put plainly: Test Example 3: seeds on filter paper moistened with chemical solution, herbicidal effect visually evaluated. To be noted: Compound (I-3) alone, 6 days after the treatment. As for the experimental part:
as §13, §14, §15, §16, §17, §18
The herbicidal effects were evaluated by the same method as in Test Example 1 except that the seeds used in the test were changed from Ambrosia artemisiifolia to Abutilon theophrasti.

Like-named read-outs stand apart in the source and are kept apart here.

For the compound `COC12OC1(c1ccc(C(F)(F)F)c3c1CCCS3(=O)=O)C=NN(C)C2=O` (stereo not shown) [Compound (I-3), 1-methoxy-3-methyl-6-(1,1-dioxido-8-(trifluoromethyl)thiochroman-5-yl)-7-oxa-3,4-diazabicyclo[4.1.0]hept-4-en-2-one], the “Actual measured value of herbicidal effect” value with Triticum aestivum (63 gai/ha) came to 0%; with Triticum aestivum (125 gai/ha) it was 0%; in the test on Lolium multiflorum (63 gai/ha), 60%; in the test on Lolium multiflorum (125 gai/ha), 80%; in test [1] (63 gai/ha), 0%; in test [1] (125 gai/ha), 30%. The “Actual measured value of herbicidal effect” value turned out to be 0% with Avena fatua (63 gai/ha); 20% in the test on Avena fatua (125 gai/ha); 80% with Ipomoea hederacea (94 gai/ha); 60% in the test with Ipomoea hederacea (125 gai/ha); 0% with Zea mays (94 gai/ha); 0% in the test on Zea mays (125 gai/ha). Besides, the pest or weed control at 3.1 ppm with Ambrosia artemisiifolia (read-out: Herbicidal effect (%), applied alone, amount of active ingredient 3.1 ppm) is 65%; in the test with Ambrosia artemisiifolia (read-out: Herbicidal effect (%), compound applied alone, amount of active ingredient 3.1 ppm), 70%. Further, the Herbicidal effect in the test with Abutilon theophrasti (0.2 ppm) and in the test on Abutilon theophrasti (3.1 ppm) was 75% each time.
